Earlier results in patent US8450379B2, “Methods for treating migraine” (Corcept Therapeutics, Inc., priority 2002, dated 2013).

Columns and labels:
[1] = target: T1, glucocorticoid (GR) receptors (Homo sapiens, UniProt P04150)
T1 sequence (P04150 1-777): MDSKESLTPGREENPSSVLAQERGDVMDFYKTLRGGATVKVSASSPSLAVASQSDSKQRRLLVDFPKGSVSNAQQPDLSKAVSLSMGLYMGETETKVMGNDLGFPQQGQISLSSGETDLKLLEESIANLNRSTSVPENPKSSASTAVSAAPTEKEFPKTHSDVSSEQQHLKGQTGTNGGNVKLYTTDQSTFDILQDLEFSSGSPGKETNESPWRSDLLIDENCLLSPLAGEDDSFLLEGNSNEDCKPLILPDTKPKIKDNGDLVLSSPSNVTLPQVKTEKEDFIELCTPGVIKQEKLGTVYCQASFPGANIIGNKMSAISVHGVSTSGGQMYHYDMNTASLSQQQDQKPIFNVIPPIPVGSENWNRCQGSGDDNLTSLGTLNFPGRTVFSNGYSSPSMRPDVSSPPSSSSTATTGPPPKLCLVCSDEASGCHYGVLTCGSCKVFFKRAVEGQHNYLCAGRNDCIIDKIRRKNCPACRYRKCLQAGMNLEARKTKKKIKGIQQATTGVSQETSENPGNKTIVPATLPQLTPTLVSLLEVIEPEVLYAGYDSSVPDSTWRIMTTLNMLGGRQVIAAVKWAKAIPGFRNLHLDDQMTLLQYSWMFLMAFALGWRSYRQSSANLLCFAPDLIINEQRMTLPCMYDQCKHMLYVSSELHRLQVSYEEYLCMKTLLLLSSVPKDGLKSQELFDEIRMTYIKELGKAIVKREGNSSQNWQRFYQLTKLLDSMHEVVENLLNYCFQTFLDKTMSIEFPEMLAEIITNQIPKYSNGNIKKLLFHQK

[2] = target: T2, Mineralocorticoid receptors (MRs) (Homo sapiens, UniProt P08235); settings: MR versus GR
T2 sequence (P08235 1-984): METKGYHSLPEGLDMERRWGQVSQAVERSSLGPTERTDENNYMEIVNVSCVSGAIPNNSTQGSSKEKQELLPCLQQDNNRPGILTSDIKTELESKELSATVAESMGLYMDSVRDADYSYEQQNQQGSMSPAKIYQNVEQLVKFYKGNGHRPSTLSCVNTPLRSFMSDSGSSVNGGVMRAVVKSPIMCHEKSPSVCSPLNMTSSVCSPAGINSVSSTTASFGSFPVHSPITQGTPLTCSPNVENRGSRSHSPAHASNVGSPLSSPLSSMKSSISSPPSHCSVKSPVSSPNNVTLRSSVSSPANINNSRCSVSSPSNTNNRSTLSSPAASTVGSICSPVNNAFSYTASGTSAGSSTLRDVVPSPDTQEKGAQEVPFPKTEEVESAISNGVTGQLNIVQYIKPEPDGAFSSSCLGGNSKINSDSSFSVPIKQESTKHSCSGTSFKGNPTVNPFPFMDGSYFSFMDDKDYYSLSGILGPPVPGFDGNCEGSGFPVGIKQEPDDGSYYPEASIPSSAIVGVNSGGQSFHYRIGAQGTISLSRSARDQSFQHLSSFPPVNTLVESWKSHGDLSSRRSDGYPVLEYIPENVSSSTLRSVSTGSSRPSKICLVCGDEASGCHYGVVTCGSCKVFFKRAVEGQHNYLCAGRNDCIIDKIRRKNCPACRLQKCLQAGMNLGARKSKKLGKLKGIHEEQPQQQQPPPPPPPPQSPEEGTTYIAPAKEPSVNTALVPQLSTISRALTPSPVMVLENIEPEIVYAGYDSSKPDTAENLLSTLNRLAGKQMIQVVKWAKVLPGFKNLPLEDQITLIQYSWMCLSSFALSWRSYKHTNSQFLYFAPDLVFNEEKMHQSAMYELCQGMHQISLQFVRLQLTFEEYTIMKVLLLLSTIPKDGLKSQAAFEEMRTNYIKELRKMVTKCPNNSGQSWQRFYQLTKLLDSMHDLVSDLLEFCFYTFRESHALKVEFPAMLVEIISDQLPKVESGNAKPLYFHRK

progesterone receptors = target: T3, progesterone receptors (Homo sapiens, UniProt P06401)
T3 sequence (P06401 1-933): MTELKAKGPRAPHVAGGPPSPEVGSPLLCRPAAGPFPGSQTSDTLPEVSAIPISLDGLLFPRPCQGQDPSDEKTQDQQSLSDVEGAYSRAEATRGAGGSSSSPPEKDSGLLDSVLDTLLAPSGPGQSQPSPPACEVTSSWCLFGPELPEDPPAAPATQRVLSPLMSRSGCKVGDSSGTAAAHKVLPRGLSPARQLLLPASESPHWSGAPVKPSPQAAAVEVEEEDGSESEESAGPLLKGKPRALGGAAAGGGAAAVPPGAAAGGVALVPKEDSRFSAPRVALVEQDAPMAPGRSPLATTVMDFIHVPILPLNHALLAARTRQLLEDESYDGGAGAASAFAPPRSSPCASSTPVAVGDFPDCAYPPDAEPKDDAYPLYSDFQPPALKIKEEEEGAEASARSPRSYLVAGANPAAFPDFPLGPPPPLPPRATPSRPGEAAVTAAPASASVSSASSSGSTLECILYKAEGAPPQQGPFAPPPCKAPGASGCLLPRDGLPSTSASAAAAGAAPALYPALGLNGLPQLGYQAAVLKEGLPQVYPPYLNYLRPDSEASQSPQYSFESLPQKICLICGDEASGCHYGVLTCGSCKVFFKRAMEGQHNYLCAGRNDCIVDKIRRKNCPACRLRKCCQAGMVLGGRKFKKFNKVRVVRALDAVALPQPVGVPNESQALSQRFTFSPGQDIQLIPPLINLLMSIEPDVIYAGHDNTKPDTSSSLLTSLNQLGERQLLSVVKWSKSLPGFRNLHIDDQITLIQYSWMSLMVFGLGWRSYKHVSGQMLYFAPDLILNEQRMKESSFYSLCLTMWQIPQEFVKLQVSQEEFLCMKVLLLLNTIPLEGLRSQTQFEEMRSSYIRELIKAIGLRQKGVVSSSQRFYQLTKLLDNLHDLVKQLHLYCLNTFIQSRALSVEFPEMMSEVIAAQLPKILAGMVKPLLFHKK

[3] = one study (Kawai)

Row | affinity of MR for cortisol relative to GR binding of glucocorticoids [2] | Compound | antagonism of glucocorticoid (GR) receptor [1] | antagonism of progesterone receptor (progesterone receptors) | fraction of the daily dose excreted in the urine [3]
1 | – | CC#C[C@]1(O)CC[C@H]2[C@@H]3CCC4=CC(=O)CCC4=C3[C@@H](c3ccc(OCCN(C)C)cc3)C[C@@]21C [RU009, 11β-(4-dimethylaminoethoxyphenyl)-17α-propynyl-17β-hydroxy-4,9-estradien-3-one] | GR antagonist effects | – | –
2 | ten-fold higher affinity | C[C@]12CCC(=O)C=C1CC[C@@H]1[C@@H]2[C@@H](O)C[C@@]2(C)[C@H]1CC[C@]2(O)C(=O)CO [cortisol] | – | – | –
3 | – | CC#C[C@]1(O)CC[C@H]2[C@@H]3CCC4=CC(=O)CCC4=C3[C@@H](c3ccc(N(C)C)cc3)C[C@@]21C [Mifepristone, (11β,17β) 11[4 (dimethylamino)phenyl]-17 hydroxy-17 (1 propynyl)estra-4,9 dien-3 one] | powerful antagonist | powerful antagonist | less than 0.5 % of the daily dose
